These results are taken from patent US7704924B2, “Library of compounds comprising pyrrolobenzodiazepine moieties” (Spirogen Limited, priority 1998, dated 2010).

Structures are written as SMILES.

In this test the test system is U937 chronic human histiocytic leukemia cells or K562 human chronic myeloid leukemia cells. As to the kind of experiment: MTT assay of the 27 member PBD library synthesised on crowns (photolytic cleavage, continuous incubation). The class given is cell-based. The settings on record: 4 days, with or without UVA (365 nm, 2 h) not given. Here is the method: The ability of agents to inhibit the growth of U937 chronic human histiocytic leukemia cells or K562 human chronic myeloid leukemia cells in culture was measured using the MTT assay (Mosmann, 1983). This is based on the ability of viable cells to reduce a yellow soluble tetrazolium salt, 3-(4,5-dimethylthiazolyl)-2,5-diphenyltetrazolium bromide (MTT; Sigma Chemical Co.), to an insoluble purple formazan precipitate. Following drug treatment, the cells were transferred to 96-well microtitre plates with 10^4 cells per well and 8 wells per sample. The plates were incubated at 37° C. in a humidified atmosphere containing 5% CO2. Following incubation of the plates for 4 days (to allow control cells to increase in number by 10-fold), 20 μL of a 5 mg/mL solution of MTT in phosphate-buffered saline was added to each well and the plates incubated further for 5 hours. […] The optical density was then read at a wavelength of 550 nm on a Titertek Multiscan ELISA plate reader and the dose-response curve constructed. […]
Following incubation of the plates for 4 days (to allow control cells to increase in number by 10-fold), 20 μL of a 5 mg/mL solution of MTT in phosphate-buffered saline was added to each well and the plates further incubated for 5 hours. […] The optical density was then read at a wavelength of 550 nm on a Titertek Multiscan ELISA plate reader and the dose-response curve constructed.
A general note: Formazan colour is commonly taken as a measure of viable cells.

Turning to `COc1cc2c(cc1OCc1ccccc1)N=C[C@@H]1CCCN1C2=O` [Benzyl DC-81, reference compound], the “% Control at 0.3 μM” value was 47.4%.
